Measurements taken from the supplement of paper PMC11061612.

Assays:
[1] = tested on: EW-1 (Ewing's Sarcoma); test: Bliss excess, mean over the matrix (fraction); higher = more synergy
Method in brief: (§1)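 Cell lines in DMEM/F12 or RPMI with 10% FBS were plated in 1536-well plates, held 24 hours at 37°C, 5% CO2, then given two-drug dose matrices for 72 hours (DMSO typically 0.2%). Viability was read by CellTiter-Glo 2.0 luminescence and scaled as inhibition from 0 (vehicle wells) to 1 (blank wells). Combination Emax is the second-highest inhibition in the matrix; Bliss excess is observed combination effect minus expected EA + EB − EA·EB, EA and EB being single-agent effects.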

[2] = tested on: G-401 (Other Solid Carcinomas); test: as above
Method in brief: as §1

[3] = tested on: Hey (Ovarian Carcinoma); test: as above
Method in brief: as §1

[4] = tested on: KOPN-8 (B-Lymphoblastic Leukemia); test: as above
Method in brief: as §1

[5] = tested on: LC-1-sq (Squamous Cell Lung Carcinoma); test: as above
Method in brief: as §1

[6] = tested on: NCI-H2122 (Lung Adenocarcinoma); test: as above
Method in brief: as §1

[7] = tested on: ALL-SIL (T-Lymphoblastic Leukemia); test: combination Emax (second highest fraction inhibited in the dose matrix, 72 h); higher = more inhibition; extreme values may be limits of the assay
Method in brief: as §1

[8] = tested on: CADO-ES1 (Ewing's Sarcoma); test: as above
Method in brief: as §1

[9] = tested on: DU-145 (Prostate Carcinoma); test: as above
Method in brief: as §1

[10] = tested on: EW-1 (Ewing's Sarcoma); test: as above
Method in brief: as §1

[11] = tested on: G-401 (Other Solid Carcinomas); test: as above
Method in brief: as §1

[12] = tested on: HCC1500 (Breast Carcinoma); test: as above
Method in brief: as §1

[13] = tested on: HCC1937 (Breast Carcinoma); test: as above
Method in brief: as §1

[14] = tested on: HCC2998 (Colorectal Carcinoma); test: as above
Method in brief: as §1

[15] = tested on: LC-1-sq (Squamous Cell Lung Carcinoma); test: as above
Method in brief: as §1

[16] = tested on: NCI-H1838 (Lung Adenocarcinoma); test: as above
Method in brief: as §1

[17] = tested on: NCI-H2122 (Lung Adenocarcinoma); test: as above
Method in brief: as §1

[18] = tested on: NCI-H650 (Lung Adenocarcinoma); test: as above
Method in brief: as §1

[19] = tested on: OACM5-1 (Esophageal Adenocarcinoma); test: as above
Method in brief: as §1

[20] = tested on: SK-LU-1 (Lung Adenocarcinoma); test: as above
Method in brief: as §1
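Wherever Bliss excess, mean over the matrix is given: after 72 h of two-drug dosing.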

Row | SMILES | Bliss excess [1] | Bliss excess [2] | Bliss excess [3] | Bliss excess [4] | Bliss excess [5] | Bliss excess [6] | combination Emax [7] | combination Emax [8] | combination Emax [9] | combination Emax [10] | combination Emax [11] | combination Emax [12] | combination Emax [13] | combination Emax [14] | combination Emax [15] | combination Emax [16] | combination Emax [17] | combination Emax [18] | combination Emax [19] | combination Emax [20]
1 | C[C@@H](c1ccc2nccn2c1)n1nnc2ncc(-c3cnn(C)c3)nc21 [Savolitinib] + Cc1c2c(nn1C)CSCc1cc(n(C)n1)CSc1cc(c3ccccc3c1)OCCCc1c(C(=O)O)n(C)c3c-2c(Cl)ccc13 [AZD5991] (first compound max 1 µM, 7x7, partner max 1 µM) | -0.0001 | -0.0047 | -0.0321 | 0.0789 | -0.0163 | -0.0513 | 0.264 | 0.346 | 0.132 | 0.2 | 0.295 | 0.428 | 0.182 | 0.454 | 0.278 | 0.28 | 0.64 | 0.2 | 0.896 | 0.329
2 | CN(CCO)CC[C@H](CSc1ccccc1)Nc1ccc(S(=O)(=O)NC(=O)c2ccc(N3CCC([C@@H](O)c4ccccc4-c4ccc(Cl)cc4)CC3)cc2)cc1S(=O)(=O)C(F)(F)F [AZD4320] + CCN(CCO)CCCOc1ccc2c(Nc3cc(CC(=O)Nc4cccc(F)c4)[nH]n3)ncnc2c1 [AZD2811] (first compound max 1 µM, 7x7, partner max 1 µM) | 0.146 | 0.0082 | -0.0022 | -0.0249 | 0.0294 | 0.0001 | 1 | 0.668 | – | 0.863 | 0.517 | 0.997 | 0.489 | 0.753 | 0.264 | 0.216 | 0.794 | 0.157 | 0.398 | 0.281
3 | Cc1cc2ncnn2cc1Nc1ncc2c(n1)n(C1CCOCC1)c(=O)n2C [AZD7648] + O=C(c1cc(Cc2n[nH]c(=O)c3ccccc23)ccc1F)N1CCN(C(=O)C2CC2)CC1 [Olaparib] (first compound max 10 µM, 7x7, partner max 10 µM) | -0.0021 | -0.0308 | -0.0088 | 0.0196 | -0.042 | -0.0124 | 0.315 | 0.548 | 0.171 | 0.732 | 0.434 | 0.269 | 0.154 | 0.321 | 0.17 | 0.323 | 0.242 | 0.14 | 0.267 | 0.329
4 | CN(CCO)CC[C@H](CSc1ccccc1)Nc1ccc(S(=O)(=O)NC(=O)c2ccc(N3CCC([C@@H](O)c4ccccc4-c4ccc(Cl)cc4)CC3)cc2)cc1S(=O)(=O)C(F)(F)F [AZD4320] + C1CN(CCC1(C(=O)N[C@@H](CCO)C2=CC=C(C=C2)Cl)N)C3=NC=NC4=C3C=CN4 [Capivasertib] (first compound max 1 µM, 7x7, partner max 3 µM) | -0.0009 | -0.0591 | -0.0385 | -0.0266 | -0.02 | -0.0234 | 1 | 0.613 | 0.0863 | 0.67 | 0.529 | 0.993 | 0.434 | 0.881 | 0.134 | 0.178 | 0.411 | 0.134 | 0.617 | 0.267
5 | Cc1c2c(nn1C)CSCc1cc(n(C)n1)CSc1cc(c3ccccc3c1)OCCCc1c(C(=O)O)n(C)c3c-2c(Cl)ccc13 [AZD5991] + Cn1cnc2c(F)c(Nc3ccc(Br)cc3Cl)c(C(=O)NOCCO)cc21 [Selumetinib] (first compound max 1 µM, 7x7, partner max 3 µM) | -0.0044 | -0.0039 | -0.0033 | 0.0258 | 0.0393 | 0.028 | 1 | 0.874 | 0.221 | 0.273 | 0.474 | 0.41 | 0.464 | 0.998 | 0.311 | 0.511 | 0.935 | 0.432 | 0.94 | 0.476
6 | Cc1nc(Nc2ncc(C(=O)Nc3c(C)cccc3Cl)s2)cc(N2CCN(CCO)CC2)n1 [Dasatinib] + CC(=O)Nc1cccc(-n2c(=O)n(C3CC3)c(=O)c3c(Nc4ccc(I)cc4F)n(C)c(=O)c(C)c32)c1 [Trametinib] (first compound max 2 µM, 7x7, partner max 1 µM) | -0.0586 | -0.0089 | 0.001 | -0.188 | -0.0577 | 0.0119 | 1 | 0.151 | 0.457 | 0.153 | 0.903 | 0.172 | 0.5 | 1 | 0.166 | 0.367 | 0.942 | 0.747 | 0.417 | 0.511
7 | COc1cc2ncnc(Nc3ccc(F)c(Cl)c3)c2cc1OCCCN1CCOCC1 [Gefitinib] + CC(C)n1c(=O)n(C)c2cnc3cc(F)c(-c4ccc(OCCCN5CCCCC5)nc4)cc3c21 [AZD1390] (first compound max 10 µM, 7x7, partner max 0.3 µM) | -0.064 | -0.0446 | -0.0573 | -0.0725 | -0.0754 | -0.0508 | 0.301 | 0.123 | 0.167 | 0.344 | 0.404 | 0.113 | 0.272 | 0.105 | 0.265 | 0.19 | 0.626 | 0.106 | 0.191 | 0.245
8 | C[C@@H](c1ccc2nccn2c1)n1nnc2ncc(-c3cnn(C)c3)nc21 [Savolitinib] + CC1(C)CCC(CN2CCN(c3ccc(C(=O)NS(=O)(=O)c4ccc(NCC5CCOCC5)c([N+](=O)[O-])c4)c(Oc4cnc5[nH]ccc5c4)c3)CC2)=C(c2ccc(Cl)cc2)C1 [Venetoclax] (first compound max 1 µM, 7x7, partner max 1 µM) | -0.0386 | -0.0528 | -0.0651 | 0.0298 | -0.0408 | -0.0559 | 0.675 | 0.695 | 0.101 | 0.112 | 0.104 | 0.629 | 0.165 | 0.105 | 0.116 | 0.146 | 0.196 | 0.0996 | 0.166 | 0.273
9 | CN(CCO)CC[C@H](CSc1ccccc1)Nc1ccc(S(=O)(=O)NC(=O)c2ccc(N3CCC([C@@H](O)c4ccccc4-c4ccc(Cl)cc4)CC3)cc2)cc1S(=O)(=O)C(F)(F)F [AZD4320] + C[C@@H]1COCCN1C2=NC(=NC(=C2)C3(CC3)[S@](=N)(=O)C)C4=C5C=CNC5=NC=C4 [AZD6738] (first compound max 1 µM, 7x7, partner max 10 µM) | 0.0574 | -0.0287 | -0.0697 | -0.0246 | 0.0261 | -0.0269 | 1 | 0.939 | 0.6 | 0.997 | 0.742 | 1 | 0.761 | 0.968 | 0.845 | 0.694 | 0.972 | 0.415 | 0.663 | 0.663
